From US8637664B2, “Alkyl 4- [4- (5-oxo-2,3,5, 11a-tetrahydo-5H-pyrrolo [2, 1-c] [1,4] benzodiazepine-8-yloxy)-butyrylamino]-1H-pyrrole-2-carboxylate derivatives and related compounds for the treatment of a proliferative disease” (Spirogen SARL, priority 2005, dated 2014)
Like-named read-outs stand apart in the source and are kept apart here.

How the values were obtained:
[1] = biological target: 262 bp DNA fragment (MS2F or MS2R) of MS2 plasmid; experiment: DNase I footprinting on MS2 DNA fragment; type: binding
Experimental: The sequence selectivity of the six PBD-pyrrole conjugates (21, 23, 25, 27, 29) was evaluated by standard DNA footprinting on a fragment of MS2 as follows, in accordance with the technique described in Martin, C., et al., (Martin, C., et al., Biochemistry, 44(11), 4135-4147 (2005))
Forward (5′-[…]-3′) or reverse (5′-[…]-3′) primer was 5′-end labelled with ^32P by T4 polynucleotide kinase. Labelling mixture contained primer (5 pmol; Sigma-Genosys), 10× kinase buffer (1 μl; Promega), (γ-^32P)-ATP (2μ of 10 μCi/μl, 6000 Ci/mmol; Perkin Elmer Life Sciences), and T4 polynucleotide kinase (10 U; Promega) in a 10 μl final volume. Labelling mix was incubated at 37° C. for 30 minutes followed by inactivation of the kinase at 70° C. for 10 minutes. A 262 bp DNA fragment (MS2F or MS2R) was amplified from the MS2 plasmid using PCR with either labelled forward or reverse primer and the unlabelled primer as required. Reactions were comprised of labelled primer mix (10 μl), 10×PCR buffer (5 μl; Sigma), dNTPs (5 μl; 2.5 mM each of A, C, G and T, Amersham Pharmacia), unlabelled primer as required ([…]), MS2 plasmid template DNA (10 ng) and Taq DNA polymerase (5 U; Sigma) in a 50 μl final volume. Radiolabelled 262-mer was purified by non-denaturing polyacrylamide gel electrophoresis, elution, filtration and EtOH precipitation and was resuspended in a solution of Tris-HCl (10 mM) pH 7.4/NaCl (10 mM) to yield an activity of 200 counts per second per 5 μl when held up, in a pipette tip, to a capped Morgan series 900 mini-monitor.
For DNase I footprinting radiolabelled 262-mer (2 μl) was incubated overnight (16-18 h) with drug solution (388 μl) or in an aqueous buffer [HEPES (20 mM) pH 7.9, NaCl (50 mM), MgCl2 (1 mM), DTT (5 mM), 10% glycerol] in control reactions. Enzymatic cleavage was initiated by addition of DNase I solution (10 μl of 0.05 U/ml; Sigma) in aqueous NaCl (200 mM), MgCl2 (20 mM) and MnCl2 (20 mM) and halted with stop solution [40 μl of NaCl (2.25 M), EDTA (150 mM) pH 8.0, 0.57 μg/μl glycogen (0.57 μg/μl; Roche), poly(dl-dC).poly(dl-dC) DNA (19.3 ng/μl; Amersham Pharmacia)]. From this mixture, digested DNA fragments were prepared for electrophoresis following the protocol of Trauger & Dervan, and were loaded on to a preheated 8% denaturing polyacrylamide gel. Electrophoresis in 1×TBE buffer was allowed to proceed for 100 min at 70 W (1600-2000 V). The gel was the fixed in acetic acid (10% v/v) and methanol (10% v/v) for 15 minutes followed by being blotted onto Whatman 3 mM paper and vacuum-dried at 80° C. for 45 minutes.
Dried gels were stored at room temperature in phosphor storage screens (Molecular Dynamics) for a minimum period of 12 h. Data were collected from exposed screens using a Molecular Dynamics 425E Phosphorlmager and transferred to ImageQuant v1.2 software (Molecular Dynamics) for analysis. Data were expressed as the differential cleavage between control and sample lanes. Peaks were integrated and differential cleavage calculated as ln(fd)−ln(fc); (fd is the fractional cleavage at any particular bond in the presence of drug and fc is the fractional cleavage of the same bond in the control). Maxam-Gilbert G+A marker lanes were prepared in the usual fashion.
The vast majority of footprint sites are common features in the binding profiles of all six conjugates, with only a small number of sites being footprinted by a subset of the family. Even more unexpectedly, no site is footprinted by only one molecule (in fact, the fewest number of conjugates that bind at any single site is four). The differential cleavage plot provides footprinting profiles at a supramaximal concentration colour-coded for each conjugate which illustrates a striking degree of overlap. Although there is no conspicuous change in footprinting patterns as the number of pyrroles units in each conjugate increases, there are changes in two other features, namely, the apparent binding affinity and the width of the footprinted site. […]

[2] = tested on: 170 bp sequence of the human Topo-IIa promoter; experiment: DNase I footprinting on Topo-IIa promoter (ICB1, ICB2 sites); type: binding
Procedure, shortened: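 DNase I footprinting on a 170 bp human Topo-IIa promoter fragment, compound lanes at 0, 1.6, 8, 40, 200, 1000, 5000 and 25000 nM. Values are the concentrations (μM) at which binding at the ICB1 and ICB2 sites is seen.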

[3] = tested on: NF-Y binding at ICB1 of Topoisomerase IIα promoter; experiment: NF-Y gel shift assay (EMSA) at ICB1
[4] = tested on: NF-Y binding at ICB2 of Topoisomerase IIα promoter; experiment: NF-Y gel shift assay (EMSA) at ICB2

Compound | IC50 ([1]; read-out: DNase IC50 (apparent binding affinity; 50% inhibition of DNase I-mediated cleavage), estimated by eye, site 5′-62CAATACACA70-3′) | Concentration at which DNA binding is observed, ICB1 ([2]; ICB1 site) | Concentration at which DNA binding is observed, ICB2 ([2]; ICB2 site) | Lowest concentration at which NF-Y binding inhibition was observed [3] | Lowest concentration at which NF-Y binding inhibition was observed [4] | apparent binding affinity of C11 relative to 25 ([1]; C11 approximately 3 μM versus 25 30-100 nM) | Footprint Position D ([1]; MS2 DNA fragment, position D) | Footprint Position G ([1]; MS2 DNA fragment, position G) | Footprint Position K ([1]; MS2 DNA fragment, position K) | Footprint Position L ([1]; MS2 DNA fragment, position L) | Footprint Position M ([1]; MS2 DNA fragment, position M) | IC50 ([1]; estimated by eye from footprint gel, read-out: DNase IC50 (apparent binding affinity))
COC(=O)c1cc(NC(=O)c2cc(NC(=O)CCCOc3cc4c(cc3OC)C(=O)N3CCC[C@H]3C=N4)cn2C)cn1C [Compound 23, (11aS) Methyl 4-({4-[4-(7-Methoxy-6-oxo-2,3,5,11a-tetrahydro-5H-pyrrolo[2,1-c][1,4]benzodiazepine-8-yloxy)-butyrylamino]-1-methyl-1H-pyrrole-2-carbonyl}-amino)-1-methyl-1H-pyrrole-2-carboxylate] | 100 to 300 nM | 1 µM | 1 µM | 5 µM | 5 µM | – | – | – | – | – | – | –
COC(=O)c1cc(NC(=O)c2cc(NC(=O)c3cc(NC(=O)CCOc4cc5c(cc4OC)C(=O)N4CCC[C@H]4C=N5)cn3C)cn2C)cn1C [Compound C11, (11aS) Methyl 4-{[4-({4-[4-(7-Methoxy-5-oxo-2,3,5,11a-tetrahydro-5H-pyrrolo[2,1-c][1,4]benzodiazepine-8-yloxy)-propionylamino]-1-methyl-1H-pyrrole-2-carbonyl]-amino)-1-methyl-1H-pyrrole-2-carbonyl]-amino}-1-methyl-1H-pyrrole-2-carboxylate] | – | – | – | – | – | 30-100 fold | lack of footprints | lack of footprints | much weaker binding | much weaker binding | lack of footprints | ~3000 nM
